Results: patent publication US20190284640A1, “Methods and Systems for Predicting Response to Immunotherapies for Treatment of Cancer” (Vanderbilt University, priority 2018, published 2019)
“Also recorded” adds a separate entry of the source.

Tests used:
[1] = system: p53 altered MMTV-Neu cells; experiment: Chemokine induction by doxorubicin in MMTV-Neu cells; format: cell-based, mouse
Excerpt: Doxorubicin induces T cell recruiting chemokines in p53 altered MMTV-Neu cells. FIG. 49.

[2] = system: TP53 mutant mouse breast cancer cells lines; experiment: Cytokine expression after doxorubicin in mouse breast cancer cell lines; format: cell-based
melanoma cell lines [3] = experiment: Flow cytometry of melanoma cell lines under basal and IFNγ-stimulated conditions; format: cell-based, human
Protocol: (§1) FIGS. 3A-F show characterization of MHC-II(+) melanoma cell lines. Melanoma cell lines were treated with IFNy for 24 h before collection and live-cell staining and flow cytometry analysis for (A) MHC-I (HLA-A/B/C), (B) MHC-II (HLA-DR), and (C) PD-L1. Bars represent mean ±S.E.M. for at least three experiments (D) Representative flow plots from (C). (E) Western blot analysis of melanoma cell lines after 24 or 48 h of IFNy stimulation. (F) Phosphorylation of STAT1 (top row) and STATS (bottom row) in melanoma cell lines at 15 min after IFNy stimulation. Histograms were colored according to the arcsinh transformed ratio or MFI medians relative to the table minimum value.
FIGS. 4A-D show graphs illustrating mean expression levels of MHC-I, MHC-II, and PD-L1 at baseline and after IFNy stimulation. Melanoma cell lines were treated with 100 ng IFNy for 24 hr (shown as percentage positive in FIGS. 2A-C) prior to harvest and live-cell staining and flow cytometry analysis for (A) MHC-FHLA-A/B/C, (B) MHC-II/HLA-DR, and (C) PD-L1. Bars represent mean fluorescence intensity ±SEM for 3 experiments. (D) Histograms of HLA-DR surface expression over an extended (24-72 hr) IFNy treatment, as assessed by flow cytometry.
Cell surface expression mirrored mRNA expression patterns; MHC-I (HLA-A/B/C) was expressed ubiquitously among all cell lines under both basal and stimulated conditions, while MHC-II (HLA-DR) was present only on the intermediate/Ib (SKMEL5 and SKMEL28) and high/Ia cell lines (WM115 and A375; FIGS. 3A-C and 4A-D). […] The high (Ia) WM115 cell line was essentially 100% positive for HLA-DR at both basal and stimulated conditions.
Standard Flow Cytometry. Flow cytometry was performed using the following antibodies: HLA-DR/PE-Cy7 (Biolegend, clone L243. 1:20). CD274/PD-L1/APC (Biolegend, clone 29E.2A3, 1:200) and HLA-A/B/C-Alexa Fluor488 (1:100, Biolegend, clone W6/32) mouse MHC-II (I-A/I-E 1:20 Biolegend, clone M5/114.15.2). DAPI was used as a viability dye. Samples were analyzed on an Aria III laser system (BD Biosciences)
Cell and tumor culture. […]

melanoma cell lines [4] = experiment: Phospho-flow cytometry of melanoma cell lines after IFNγ stimulation; format: cell-based, human; conditions: 15 min IFNγ; MHC-II(−) cell lines
Protocol: as §1
Phospho-flow cytometry. Melanoma cell lines were treated with Accutase™ (EMD Millipore, # SCR005) for 10 minutes at 37° C. to dissociate them from the plate. Dissociated cell lines were rested at 37° C. in a CO2 incubator for 30 minutes prior to stimulation. After resting, cells were stimulated by adding IFNy (Cell Signaling) at a final concentration of 100 ng/mL. During signaling, cells were kept in a 37° C. CO2 incubator. After 15 minutes of signaling, cells were fixed for 10 minutes at room temperature with a final concentration of 1.6% paraformaldehyde (Electron Microscopy Services). […] Samples were analyzed on a LSRII system (BD Biosciences).

[5] = system: melanoma PDX tissue slices; experiment: Ex vivo organotypic culture of PDX tumor slices with or without IFNγ; format: cell-based, human; conditions: PT1 and PT2 PDX tissue slices, 24-48 h
Excerpt: FIGS. 6A-D show Ex vivo culture of tumors derived from anti-PD-1-responding and non-responding patients identifies heterogeneity in interferon response. (A) Patient tumor blocks stained for HLA-DR (brown) and SOX10 (pink) at low (scale bar, 500 um) and high magnification (scale bar, […]); PT1: anti-PD-1 non-responder and PT2: anti-PD-1 responder. (B) Experimental schema. (C) Schema and images of PDX tissue sections (ex vivo organotypic culture). (D) Western blot analysis of tissue sections cultured in the presence or absence of IFNy for 24-48 h.
To test this hypothesis, patient-derived xenograft (PDX) models were utilized from the tumor resections of two melanoma patients who subsequently received anti-PD1 therapy; patient 1 (PT1; non-responder, 0% HLA-DR-positive, class II/III) and patient 2 (PT2; partial responder, heterogeneous 15% HLA-DR-positive, class Ib) (FIG. 6A). […] The resected tumors from PT1 and PT2 were serially transplanted to athymic nu/nu mice, which are highly deficient in functional T cells, ruling out a possible source of IFNγ (FIG. 6B). […] Thus, HLA-DR may be a marker of IFNγ activity in the microenvironment of some (but not all) tumors.
Cell and tumor culture. SKMEL-28 and WM115 cell lines were obtained from Dr. Kimberly Dahlman (Vanderbilt University), CHL-1 and HMCB melanoma cell lines were obtained from the laboratory of William Pao (Vanderbilt University). […]

melanoma cell lines [6] = experiment: Western blot of melanoma cell lines after IFNγ stimulation; format: cell-based, human
Protocol: as §1
Immunoblotting was performed as previously described^32 Briefly, cells were washed in cold phosphate-buffered saline, collected and lysed in 1×RIPA buffer (50 mM Tris (pH 7.4), 1% NP-40, 150 mM NaCl, 1 mM EDTA, 0.1% SDS, 0.25% sodium deoxycholate, 5 mM NaF, 5 mM Na3VO4, 10% glycerol, […] phenylmethyl-sulphonylfluoride and protease inhibitors) for 30 min on ice. Lysates were sonicated for 2-3 s to shear DNA and cleared by centrifugation at 13,200 r.p.m. for 15 min. Protein concentrations of the lysates were determined by BCA assay (Bio-Rad, Hercules, Calif.). Samples were separated by SDS-PAGE and transferred to nitrocellulose membrane. […]

| Compound | T cell recruiting chemokines [1] | cytokine expression [2] | HLA-DR expression (melanoma cell lines [3]; CHL-1 or HMCB, 72 hrs of IFNγ treatment) | HLA-DR expression (melanoma cell lines [3]; SKMEL28 (intermediate/Ib)) | PD-L1 expression (melanoma cell lines [3]; all cell lines tested) | STATS activation (melanoma cell lines [4]) | HLA-DR upregulation [5] | CIITA expression (melanoma cell lines [6]; 24 or 48 h IFNγ) | STAT1 activation (melanoma cell lines [6]; all cell lines) |
| --- | --- | --- | --- | --- | --- | --- | --- | --- | --- |
| COc1cccc2c1C(=O)c1c(O)c3c(c(O)c1C2=O)C[C@@](O)(C(=O)CO)C[C@@H]3O[C@H]1C[C@H](N)[C@H](O)[C@H](C)O1 [Doxorubicin] | induces | induce cytokine expression | – | – | – | – | – | – | – |
| IFNγ: recombinant human IFNγ (R&D Systems), stimulation at 100 ng/mL | – | – | No significant increase | potently induced | potently induced; also recorded: significantly upregulated | preferentially activated | only the PT2 PDX model (anti-PD-1 responder) upregulated HLA-DR | only induced in HLA-DR+ Ia/Ib cells | robustly activated |
